According to patent US11400019B2, “Sustained release drug delivery systems with reduced impurities and related methods” (DURECT CORPORATION, priority 2020, dated 2022):
Where a name gives a salt, the structure may show the parent alone.

Legend:
[1] = test system: patients undergoing elective arthroscopic shoulder surgery; assay: Example 13 trial: safety; format: in vivo, human; conditions: safety population
Excerpt: Pharmacokinetic/pharmacodynamic (PK/PD) relationships were to be assessed as part of central nervous system (CNS) toxicity monitoring and cardiac monitoring. For patients not selected for PK-profiling, if a cardiac or CNS event occurred that met the criteria for a serious adverse event (SAE) or a severe non-SAE, a blood sample for PK analysis was to be taken as close to the event as possible.
The incidence of adverse events (AEs); the incidence of bupivacaine-related CNS side effects; clinical laboratory tests; vital signs; 12-lead ECGs; and physical examinations.
Evaluation by the investigator of wound healing and tissue conditions at the surgical wound on Days 7 and 14, and at the 6-month follow-up visit. An MRI of the shoulder as well as a functionality assessment of the shoulder using the Constant-Murley score were to be performed at the 6-month follow-up visit.

[2] = test system: subjects undergoing elective outpatient laparoscopic cholecystectomy; assay: Example 16 trial: pain intensity on movement after laparoscopic cholecystectomy; format: in vivo, human; conditions: Part 2 (N = 148 per group)
Description: Part 1: Pain intensity on movement measured at scheduled time points from 0 to 72 hours following test drug administration, adjusted for prior rescue medication use and analyzed by a mixed effect ANOVA model of repeated measures (MMRM).
Part 2: Pain intensity on movement measured at scheduled time points from 0 to 48 hours following test drug administration, adjusted for prior rescue medication use and analyzed by a mixed effect ANOVA model of repeated measures (MMRM).

[3] = test system: patients undergoing elective arthroscopic shoulder surgery; assay: Example 13 trial: pain intensity and opioid rescue after arthroscopic shoulder surgery; format: in vivo, human
Description: Patients were screened 1 to 14 days before surgery at which time informed consent was obtained. Surgery was performed and the trial drug administered on Day 0. The trial was planned to be divided into two sequential cohorts, each with three treatment groups (a, b and c).
All patients received paracetamol (4 grams/day; 2 grams/day for body weight <66 kg for the first 72 hours) as background treatment. In case sufficient pain relief was not obtained, patients were allowed rescue medication in the form of morphine administered intravenously or orally, which consisted of oral morphine 10 mg at 1-hour intervals or, if unable to tolerate orally intake, intravenous (IV) morphine […] at 5-minute intervals. After 72 hours, subjects were allowed paracetamol and oral morphine on an as-needed basis. Patients recorded pain intensity as well as rescue medication in an electronic diary (eDiary).
Primary: The study had two primary endpoints. […] For the primary endpoints to be met, […] of PI on movement compared to placebo as well as superiority in total use of opioid analgesia needed to be shown. PI “on movement” reported on the NRS scale was summarized by treatment group and time, using descriptive statistics for continuous variables.
Time to first opioid rescue medication usage was defined as the duration between time of trial drug administration and the time of first opioid use

[4] = test system: patients undergoing laparotomy, laparoscopic cholecystectomy or laparoscopically-assisted colectomy; assay: Example 17 phase 3 trial: pain intensity and opioid use in general surgical procedures; format: in vivo, human; conditions: for Total Morphine-equivalent Opioid Medication Use, MEDD 0-72 hours, Median (Q1, Q3) / Repeated Measures Pain Intensity on Movement, All Timepoints 0-72 hr, LS Mean (SE): ITT; for Pain Intensity on Movement AUC 0-24 hours, LS Mean (SE) / Pain Intensity on Movement AUC 0-48 hours, LS Mean (SE) / Pain Intensity on Movement AUC 0-72 hours, LS Mean (SE) / Pain Intensity on Movement AUC 24-48 hours, LS Mean (SE) / Pain Intensity on Movement AUC 48-72 hours, LS Mean (SE): Log Pad and Opioid Pain Scores; for Repeated Measures Pain Intensity on Movement, All Timepoints 0-72 hr, LS Mean (SE): LogPad Scores Only
[5] = test system: subjects undergoing elective outpatient laparoscopic cholecystectomy; assay: Example 16 trial: safety; format: in vivo
Excerpt: The trial included: 1) a randomized, parallel-group, double-blind, placebo-controlled study (Part 1) and a randomized, parallel-group, double-blind, bupivacaine HCl active-controlled study (Part 2). The trial evaluated the efficacy and safety of Formulation A (bupivacaine, benzyl alcohol, sucrose acetate isobutyrate) as a delivery system in subjects undergoing elective outpatient laparoscopic cholecystectomy.
There were no fatalities in this trial. […]

[6] = test system: patients undergoing general surgical procedures; assay: Example 17 trial: safety including Holter monitoring; format: in vivo, human; conditions: Safety Population
Excerpt: Patient safety was carefully monitored throughout the trial with traditional assessments of AEs, vital signs, routine laboratory testing, and Holter monitoring (i.e., continuous recording of electrocardiogram) for 3 days after dosing. Special attention was given to cardiovascular and neurological AE, as bupivacaine toxic effects are manifest in those two body systems. In addition, special assessments were done to monitor surgical wound condition and healing over the 30 days of the trial.

[7] = LOCF, ITT population, hours post-surgery
[8] = Cohort 2 (Laparoscopic Cholecystectomy)

Compound: CCCCN1CCCCC1C(=O)Nc1c(C)cccc1C (centres unmarked) [bupivacaine HCl, bupivacaine hydrochloride]
- All TEAEs, % of patients [1]: 37.9%
- All TEAEs, n (patients with at least one event) [1]: 11
- TEAE Alanine aminotransferase increased, % of patients [1]: 0.0%
- TEAE Cardiac disorders, % of patients [1]: 10.3%
- TEAE Gastrointestinal disorders, % of patients [1]: 3.4%
- TEAE General disorders and administration site conditions, % of patients [1]: 0.0%
- TEAE Headache, % of patients [1]: 3.4%
- TEAE Injury, poisoning and procedural complications, % of patients [1]: 0.0%
- TEAE Investigations, % of patients [1]: 6.9%
- TEAE Musculoskeletal and connective tissue disorders, % of patients [1]: 6.9%
- TEAE Musculoskeletal pain, % of patients [1]: 6.9%
- TEAE Nausea, % of patients [1]: 3.4%
- TEAE Nervous system disorders, % of patients [1]: 13.8%
- TEAE Respiratory, thoracic and mediastinal disorders, % of patients [1]: 6.9%
- TEAE Skin and subcutaneous tissue disorders, % of patients [1]: 6.9%
- Pain intensity on movement 0 to 48 hours, Mean [2]: 5.87
- Total IV morphine equivalent dose of opioid rescue medication, Median ([3]; 0-72 hours after surgery, ITT population): 8.0 mg
- median cumulative IV morphine-equivalent dose of opioids 0 to 72 hours ([3]; Formulation A 5 mL (660 mg) or bupivacaine HCl 20 mL (50 mg) subacromial, ITT): 8.0 mg
- Pain intensity at rest normalized AUC 1-72 hours, Mean (SD) ([3]; ITT population): 2.33 (1.76)
- Time to first use of opioid rescue medication, Median (95% CI) ([3]; ITT population, Kaplan-Meier estimates): 1.4 (1.0, 4.1) hours
- Pain intensity on movement, mean AUC (1-24) [3, 7]: 5.82
- Pain intensity on movement, mean AUC (1-48) [3, 7]: 5.56
- Pain intensity on movement, mean AUC (1-72) [3, 7]: 5.16
- Pain intensity on movement, mean AUC (24-48) [3, 7]: 5.31
- Pain intensity on movement, mean AUC (48-72) [3, 7]: 4.38
- median time to first use of opioid rescue medication ([3]; single subacromial dose, ITT): 1.4 h
- percentage of subjects opioid free during 72 hours after surgery ([3]; single subacromial dose, ITT): 27.6%
- Total Morphine-equivalent Opioid Medication Use, MEDD 0-72 hours, Median (Q1, Q3) ([4]; Cohort 1 (Laparotomy)): 63.0 (34.0, 152.0) mg
- Pain Intensity on Movement AUC 0-24 hours, LS Mean (SE) ([4]; Cohort 1 (Laparotomy)): 6.3 (0.48)
- Pain Intensity on Movement AUC 0-48 hours, LS Mean (SE) ([4]; Cohort 1 (Laparotomy)): 6.0 (0.49)
- Pain Intensity on Movement AUC 0-72 hours, LS Mean (SE) ([4]; Cohort 1 (Laparotomy)): 5.8 (0.51)
- Pain Intensity on Movement AUC 24-48 hours, LS Mean (SE) ([4]; Cohort 1 (Laparotomy)): 5.7 (0.56)
- Pain Intensity on Movement AUC 48-72 hours, LS Mean (SE) ([4]; Cohort 1 (Laparotomy)): 5.3 (0.60)
- Repeated Measures Pain Intensity on Movement, All Timepoints 0-72 hr, LS Mean (SE) ([4]; Cohort 1 (Laparotomy)): 5.9 (0.35)
- Total Morphine-equivalent Opioid Medication Use, MEDD 0-72 hours, Median (Q1, Q3) [4, 8]: 22.5 (12.5, 34.5) mg
- Pain Intensity on Movement AUC 0-24 hours, LS Mean (SE) [4, 8]: 4.8 (0.47)
- Pain Intensity on Movement AUC 0-48 hours, LS Mean (SE) [4, 8]: 4.4 (0.45)
- Pain Intensity on Movement AUC 0-72 hours, LS Mean (SE) [4, 8]: 3.9 (0.45)
- Pain Intensity on Movement AUC 24-48 hours, LS Mean (SE) [4, 8]: 4.0 (0.22)
- Pain Intensity on Movement AUC 48-72 hours, LS Mean (SE) [4, 8]: 2.8 (0.52)
- Repeated Measures Pain Intensity on Movement, All Timepoints 0-72 hr, LS Mean (SE) [4, 8]: 3.6 (0.32)
- Fatal TEAE, number of subjects ([5]; Part 2 (N = 148 per group)): 0
- Fatal TEAE, percent of subjects ([5]; Part 2 (N = 148 per group)): (0.0%)
- At Least One LogPad-Solicited TEAE, number of subjects ([5]; human, in vivo): 132
- At Least One LogPad-Solicited TEAE, percent of subjects ([5]; human, in vivo): (89.2%)
- At Least One Serious TEAE, number of subjects ([5]; human, in vivo): 3
- At Least One Serious TEAE, percent of subjects ([5]; human, in vivo): (2.0%)
- At Least One Serious and Related TEAE, number of subjects ([5]; human, in vivo): 0
- At Least One Serious and Related TEAE, percent of subjects ([5]; human, in vivo): (0.0%)
- At Least One Severe and Related TEAE, number of subjects ([5]; human, in vivo): 0
- At Least One Severe and Related TEAE, percent of subjects ([5]; human, in vivo): (0.0%)
- At Least One Spontaneously-reported TEAE, number of subjects ([5]; human, in vivo): 138
- At Least One Spontaneously-reported TEAE, percent of subjects ([5]; human, in vivo): (93.2%)
- At Least One TEAE Leading to Study Discontinuation, number of subjects ([5]; human, in vivo): 1
- At Least One TEAE Leading to Study Discontinuation, percent of subjects ([5]; human, in vivo): (0.7%)
- At Least One TEAE, number of subjects ([5]; human, in vivo): 146
- At Least One TEAE, percent of subjects ([5]; human, in vivo): (98.6%)
- TEAE Maximum Relationship to Study Drug: Not Related, number of subjects ([5]; human, in vivo): 42
- TEAE Maximum Relationship to Study Drug: Not Related, percent of subjects ([5]; human, in vivo): (28.4%)
- TEAE Maximum Relationship to Study Drug: Related, number of subjects ([5]; human, in vivo): 104
- TEAE Maximum Relationship to Study Drug: Related, percent of subjects ([5]; human, in vivo): (70.3%)
- TEAE Maximum Severity: Mild, number of subjects ([5]; human, in vivo): 92
- TEAE Maximum Severity: Mild, percent of subjects ([5]; human, in vivo): (62.2%)
- TEAE Maximum Severity: Moderate, number of subjects ([5]; human, in vivo): 49
- TEAE Maximum Severity: Moderate, percent of subjects ([5]; human, in vivo): (33.1%)
- TEAE Maximum Severity: Severe, number of subjects ([5]; human, in vivo): 5
- TEAE Maximum Severity: Severe, percent of subjects ([5]; human, in vivo): (3.4%)
- treated subjects with treatment-emergent serious adverse events ([5]; human, in vivo): 3 subjects
- At Least One Cardiovascular TEAE ([6]; Cohort 1): 7 (39%)
- At Least One Neurological TEAE ([6]; Cohort 1): 4 (22%)
- At Least One Non-Opioid TEAE ([6]; Cohort 1): 17 (94%)
- At Least One Serious TEAE ([6]; Cohort 1): 4 (22%)
- At Least One Serious and Related TEAE ([6]; Cohort 1): 0
- At Least One Severe and Related TEAE ([6]; Cohort 1): 0
- At Least One TEAE ([6]; Cohort 1): 17 (94%)
- At Least One TEAE Leading to Study Discontinuation ([6]; Cohort 1): 0
- At Least One Wound Infection REAE ([6]; Cohort 1): 2 (11%)
- Deaths ([6]; Cohort 1): 0
- TEAE Maximum Relationship to Study Drug: Not Related ([6]; Cohort 1): 13 (72%)
- TEAE Maximum Relationship to Study Drug: Related ([6]; Cohort 1): 4 (22%)
- TEAE Maximum Severity: Mild ([6]; Cohort 1): 2 (11%)
- TEAE Maximum Severity: Moderate ([6]; Cohort 1): 11 (61%)
- TEAE Maximum Severity: Severe ([6]; Cohort 1): 4 (22%)
- At Least One Cardiovascular TEAE ([6]; Cohort 2): 2 (10%)
- At Least One Neurological TEAE ([6]; Cohort 2): 10 (50%)
- At Least One Non-Opioid TEAE ([6]; Cohort 2): 19 (95%)
- At Least One Serious TEAE ([6]; Cohort 2): 1 (5%)
- At Least One Serious and Related TEAE ([6]; Cohort 2): 0
- At Least One Severe and Related TEAE ([6]; Cohort 2): 1 (5%)
- At Least One TEAE ([6]; Cohort 2): 20 (100%)
- At Least One TEAE Leading to Study Discontinuation ([6]; Cohort 2): 1 (5%)
- At Least One Wound Infection REAE ([6]; Cohort 2): 1 (5%)
- Deaths ([6]; Cohort 2): 0
- TEAE Maximum Relationship to Study Drug: Not Related ([6]; Cohort 2): 10 (50%)
- TEAE Maximum Relationship to Study Drug: Related ([6]; Cohort 2): 10 (50%)
- TEAE Maximum Severity: Mild ([6]; Cohort 2): 2 (10%)
- TEAE Maximum Severity: Moderate ([6]; Cohort 2): 13 (65%)
- TEAE Maximum Severity: Severe ([6]; Cohort 2): 5 (25%)
